Laboratory results taken from PubChem BioAssay AID844 (SRMLSC, 2007).
Active and inactive are the calls of the source. No rule for the calls is given here.

Test system: MRP1 cells, doxorubicin viability shift, 10 uM compound
Assay: doxorubicin EC50 increase in MRP-1 cells, dose response, cell-based, doxorubicin EC50 shift (AID 844)
Settings: for EC50: measured here: doxorubicin EC50 with compound

Compound	fold increase in Dox EC50	EC50
CCOc1ccc(C2CC(c3ccc(F)cc3)Nc3nc(N)nn32)cc1 (configuration not stated)	0.55 (inactive)	2.95 µM
Cc1cc(C)c(S(C)(=O)=O)c(Sc2ccc(Cl)cc2)n1	0.81 (inactive)	4.38 µM
Cn1c(=O)n(C/C=C/c2ccccc2)c(=O)c2c1nc1n2CCCN1c1ccc(F)cc1	0.76 (inactive)	4.12 µM
O=C(COc1ccc(Br)cc1)c1ccc2c(c1)CCCC2	1.17 (inactive)	6.29 µM
Cc1ccc(S(=O)(=O)N2CCN(c3nc(C)c4c(c3C#N)CC(C)(C)OC4)CC2)cc1	0.72 (inactive)	3.91 µM
COc1ccc(/C=C2/N=C(SC3CCOC3=O)N(c3cccc(OC)c3)C2=O)cc1 (configuration not stated)	0.68 (inactive)	3.67 µM
Cc1nnc(NC(=O)COc2ccccc2)s1	1.25 (inactive)	6.73 µM
Cc1cccc(NC(=O)/C(=C\c2ccc([N+](=O)[O-])o2)NC(=O)c2ccc(Cl)cc2)c1	0.75 (inactive)	4.04 µM
COc1cccc(/C=N/NC(=O)CNC(=O)C2COc3ccccc3O2)c1O (configuration not stated)	0.12 (inactive)	0.637 µM
Cc1nc(=O)c(-c2ccccc2)c(C)n1-c1cccc(C(=O)O)c1	1.26 (inactive)	6.82 µM
O=C1CC(N2CCN(c3nc4ccccc4s3)CC2)C(=O)N1c1ccc(F)cc1 (configuration not stated)	1.18 (inactive)	6.38 µM
COc1ccc(/C=C/C(=O)NCc2cnn(C)c2C)cc1COc1ccc(Br)cc1	0.68 (inactive)	3.7 µM
CCc1c(C)sc(NC(=O)c2cccs2)c1C(=O)OC(C)C	0.42 (inactive)	2.26 µM
COc1cccc(/C=N/NC(=O)C(=O)N2CCCC2)c1O	0.67 (inactive)	3.6 µM
Cc1cc(C)c(N=Cc2c(O)n(-c3nccs3)c(=O)c3ccccc23)c(C)c1	0.29 (inactive)	1.54 µM
O=C1/C(=C\c2cccs2)N=C(c2cccs2)N1Nc1ccccc1	0.84 (inactive)	4.55 µM
CC1=C(C(=O)OC(C)C)C(c2cccc(F)c2)N2C(=O)C(C)SC2=N1 (configuration not stated)	1.21 (inactive)	6.53 µM
CCOC(=O)Cc1csc(NC(=O)c2c(-c3ccccc3)noc2C)n1	0.44 (inactive)	2.4 µM
Cc1cc(C)c(NC(=O)c2sc3nc4c(cc3c2N)C(=O)CC(C)(C)C4)c(C)c1	0.7 (inactive)	3.76 µM
CC1(C)CC(=O)C2=C(C1)N=C1SCCC(=O)N1C2c1ccc(C(F)(F)F)cc1 (configuration not stated)	1.21 (inactive)	6.51 µM
O=C(CCN1C(=O)/C(=C/c2ccccc2)SC1=S)NNC(=O)c1cccnc1	1.27 (inactive)	6.88 µM
O=C(NCc1ccccn1)c1cc(-c2ccc(-c3ccccc3)cc2)nc2ccccc12	0.57 (inactive)	3.1 µM
CC(=O)N1CCN=C1SCc1ccc(Br)cc1	0.97 (inactive)	5.26 µM
Cc1csc(C(C#N)C(=O)c2cc3ccccc3o2)n1 (configuration not stated)	1.19 (inactive)	6.41 µM
O=C1NC(=O)C2(COC(c3ccccc3Cl)OC2)S1 (configuration not stated)	0.69 (inactive)	3.74 µM
Cc1cc(C)n2nc(C(=O)Nc3nnc(C4CC4)s3)nc2n1	0.87 (inactive)	4.7 µM

Compound	fold increase in Dox EC50	EC50
Cc1nc2cc(-c3ccc(Cl)cc3)nn2c(C)c1CCC(=O)NC(C)c1ccc2c(c1)OCCO2 (configuration not stated)	0.52 (inactive)	2.83 µM
Cc1nnc(NC(=O)C(C)Sc2nncn2C)s1 (configuration not stated)	0.77 (inactive)	4.15 µM
Cc1onc(-c2ccccc2Cl)c1C(=O)Nc1nnc(-c2ccc(Br)cc2)s1	0.75 (inactive)	4.04 µM
Cc1cc(N2CCN(c3cccc(C)c3C)CC2)nc(-c2ccccc2)n1	0.99 (inactive)	5.37 µM
CCCCOc1ccc(C(=O)Oc2ccc(C)nc2)cc1	0.9 (inactive)	4.88 µM
Cc1ccc(NC(=O)CNC(=O)c2cccs2)cc1S(=O)(=O)Nc1ccc(Cl)cc1	1.11 (inactive)	5.97 µM
CC(C)Cc1nnc(NC(=O)CSc2ncn[nH]2)s1	0.9 (inactive)	4.87 µM
Cc1nc2c(ccc3nc(NC(=O)C(c4ccccc4)c4ccccc4)sc32)s1	0.84 (inactive)	4.51 µM
CCN(C(=O)c1cc2cc3ccc(C)cc3nc2o1)c1ccc(OC)cc1	0.64 (inactive)	3.46 µM
CCOC(=O)c1c(NC(=O)CSc2ncn[nH]2)sc(C)c1C	0.32 (inactive)	1.74 µM
CCOc1ccc(NC(=O)N2CCC(n3c(=O)[nH]c4ccccc43)CC2)cc1	0.9 (inactive)	4.85 µM
COc1ccc(/C=N/Nc2cc(OC)ncn2)cc1	0.57 (inactive)	3.1 µM
Cc1cccc(-n2c(SCC(=O)Nc3ncc(Cl)cc3Cl)nc3ccccc32)c1	0.81 (inactive)	4.37 µM
O=C(CCc1ccccc1)N/N=C/c1cc(Br)ccc1O	0.12 (inactive)	0.631 µM
O=c1cc(CN2CCN(c3cccc(Cl)c3)CC2)c2cc3c(cc2o1)CCCC3	0.74 (inactive)	3.98 µM
CN=c1scc(C)n1/N=C/c1ccc(O)c(O)c1O	0.92 (inactive)	4.95 µM
Cc1ccc(C(=O)CSc2n[nH]c(-c3ccco3)n2)cc1C	0.74 (inactive)	3.97 µM
CCOc1ccccc1Nc1ncnc2c1cnn2-c1ccccc1	0.57 (inactive)	3.08 µM
O=C(CSc1nccn1-c1cccc(Cl)c1)Nc1ccc2c(c1)OCCO2	1.22 (inactive)	6.58 µM
COc1ccc(-c2[nH]ncc2-c2cnn(-c3ccccc3)c2)c(O)c1	0.27 (inactive)	1.43 µM
CCCCCCCOc1ccc(-c2ccc(C#N)cn2)cc1	0.67 (inactive)	3.63 µM
Cc1ccccc1Cn1ccc(NC(=O)c2onc(C)c2Cl)n1	1.15 (inactive)	6.24 µM
CCCCc1nnc(NC(=O)CSc2nc(=O)cc(N)n2-c2cccc(C)c2)s1	1.31 (inactive)	7.08 µM
Brc1ccc(OCc2nnc3n2CCC3)cc1	1.67	9.02 µM
O=C(NCc1ccc(Cl)cc1)C(=O)NCC(c1ccco1)N1CCOCC1 (configuration not stated)	1.25 (inactive)	6.77 µM
CCCCOC(=O)Nc1ccc(C(C)C)cc1	0.78 (inactive)	4.21 µM

Compound	fold increase in Dox EC50	EC50
CCC(Sc1nccn1C)C(=O)Nc1nnc(C)s1 (configuration not stated)	1.01 (inactive)	5.43 µM
Cc1nn(Cc2ccc(Cl)cc2Cl)c(C)c1NC(=O)c1ccc(COc2cc(Cl)ccc2Cl)o1	0.82 (inactive)	4.4 µM
Cn1cc(Br)c(C(=O)NNC(=O)c2ccc(Cl)cc2)n1	1.23 (inactive)	6.63 µM
Cc1cc(=O)oc2c1ccc1oc(/C(=N/O)c3ccccc3)c(C)c12	1.3 (inactive)	7.02 µM
COc1ccc(CNc2nc3c(c(=O)n(Cc4ccc(Cl)cc4)c(=O)n3C)n2C)cc1	0.83 (inactive)	4.48 µM
Cc1cc(/C=C2\SC(=S)NC2=O)c(C)n1C	1.44 (inactive)	7.78 µM
O=c1nc2s/c(=C\c3ccc(-c4ccccc4[N+](=O)[O-])o3)c(=O)n2nc1-c1ccccc1	1.43 (inactive)	7.73 µM
Cc1onc(-c2ccccc2)c1C(=O)Nc1nnc(N(C)Cc2ccccc2)s1	0.64 (inactive)	3.46 µM
C=CCOc1ccc(CNc2ccc(NC(=O)CC(C)C)cc2)cc1OC	0.82 (inactive)	4.43 µM
CC(=O)c1ccc(N2CCN(c3ccc(C(F)(F)F)cn3)CC2)cc1	0.56 (inactive)	3 µM
CCOC(=O)C(C(=O)Nc1nc2ccccc2s1)C1CCCCC1 (configuration not stated)	1 (inactive)	5.39 µM
O=C1CC(N2CCC(c3nc4ccccc4o3)CC2)C(=O)N1c1cc(Cl)cc(Cl)c1 (configuration not stated)	1.36 (inactive)	7.36 µM
CC(C)(C)c1ccc(C(=O)CSc2ncn[nH]2)cc1	0.82 (inactive)	4.41 µM
O=C(N/N=C/c1ccccc1[N+](=O)[O-])c1ccc(COc2ccccc2-c2ccccc2)cc1	1 (inactive)	5.39 µM
CCOC(=O)c1[nH]c2cc(OC)c(OC)cc2c1N	0.96 (inactive)	5.17 µM
N#Cc1nc(COc2ccc(Br)cc2)oc1N1CCCC1	1.26 (inactive)	6.8 µM
O=C1C=C(O)CC(c2ccc(Cl)cc2)C1 (configuration not stated)	1.04 (inactive)	5.6 µM
CCOc1ccc(-c2nc(C#N)c(N3CCCCCC3)o2)cc1	0.56 (inactive)	3.04 µM
O=C(c1ccco1)N1CCN=C1SCc1ccc(F)cc1	0.87 (inactive)	4.71 µM
Fc1ccc(-n2nnnc2-c2cnc(-c3cccs3)nc2C(F)(F)F)cc1	0.6 (inactive)	3.24 µM
COc1ccc(C(=O)Nc2ccc(Cl)c(S(=O)(=O)Nc3ccccc3OC)c2)cc1	0.57 (inactive)	3.05 µM
CCOC(=O)Cc1csc(NC(=S)NC(=O)C(C)(C)C)n1	1.2 (inactive)	6.45 µM
CCN(CC)S(=O)(=O)c1ccc2c(c1)nc(SCn1nnc3ccccc3c1=O)n2CC	0.52 (inactive)	2.79 µM
N#Cc1c(-c2ccccc2)nc(SCC(=O)N(c2ccccc2)c2ccccc2)[nH]c1=O	1.08 (inactive)	5.86 µM
